Test results as given in patent US5965106A, “In vivo binding pair pretargeting” (PerImmune Holdings, Inc., priority 1995, dated 1999).

Legend:
[1] = tested on: rhDHFR; experiment: Inhibition of rhDHFR by MTX and DTPA-MTX (dihydrofolate reduction, A340); format: biochemical, human; details: 1×10^-8 M and 5×10^-9 M inhibitor concentration, 22° C., pH 7.5
Experimental: Dihydrofolate reductase concentrations of 10^-7 -10^-9 M are easily assayed by monitoring the time dependent decrease in A340 caused by the reduction of dihydrofolate and the oxidation of the cofactor nicotinadenine dinucleotide phosphate (NADPH). The assay is performed at 22° C. (room temperature) in 50 mM Tris, pH 7.5 and 60 μM NADPH and initiated by adding dihydrofolate to 50 μM. One enzyme unit is equivalent to the amount of enzyme required to reduce 1 μmole of dihydrofolate to 1 μmole tetrahydrofolate in 1 min. at 22° C. and can be quantitated using an extinction coefficient of 12,300 M^-1 cm^-1.
The inhibition rate of DHFR by MTX and its derivatives is determined by the decrease in the conversion of dihydrofolate to tetrahydrofolate. […] Derivatives of methotrexate are evaluated by comparing inhibition rates to the inhibition rate of MTX at equivalent concentrations.
The effects of modifying methotrexate with DPTA were unknown and required a comparison of the activity of equimolar concentrations of methotrexate and DTPA-MTX. […] The inhibition of rhDHFR by MTX and DTPA-MTX were then measured under the assay conditions mentioned earlier and compared.

[2] = tested on: 16.88 bound rhDHFR; experiment: Inhibition of DHFR bound in an antibody-DHFR complex by MTX and DTPA-MTX, versus native rhDHFR; details: 16.88-DHFR titrated to activity of native rhDHFR
[3] = tested on: wild-type recombinant human dihydrofolate reductase (rhDHFR); details: noncovalent binding; cited from earlier work
[4] = Biodistribution and clearance in rabbits; format: in vivo, New Zealand white rabbit; details: rabbit
Experimental: In order to compare the biodistribution and clearance of ^111 In-DTPA-MTX with that of ^111 In-DTPA in the New Zealand white rabbit, approximately 140-190 μg and 120 μCi of each agent is administered to three animals each by intravenous injection in the central ear […]. One animal of each group is sacrificed at 1, 4 and 24 hours after injection.

[5] = Biodistribution and clearance in nude mice; format: in vivo, nude mouse
Experimental: In order to compare the biodistribution and clearance of ^111 In-DTPA-MTX with that of ^111 In-DTPA in the nude mouse, ^111 In-DTPA-MTX is administered at a dose of 9 μg and 8 μCi and ^111 In-DTPA is administered at a dose of 9 μg and 7 μCi by intravenous injection into the lateral tail vein. Animals are sacrificed a 1, 2, 4 and 24 hours after injection in groups of three animals per time point. […] In addition, there is low uptake of the MTX conjugate in the liver which is not seen with the labeled DTPA.

[6] = Whole body clearance from athymic mice; format: in vivo, athymic nu/nu mice; details: 50 uCi, lateral tail vein, 0.5-24 hours
Experimental: Clearance of the ^111 In-DTPA-MTX at a rate similar to that of ^111 In-DTPA would indicate that rapid body clearance of the portion of the conjugate not bound in tumor tissue by antibody-DHFR may be expected. Such rapid clearance would ensure that nearly all the unbound radionuclide would decay outside the body.
Three athymic nu/nu mice were injected via the lateral tail vein with 50 uCi ^111 In-DTPA-MTX in 0.5 mL 10% normal mouse serum in phosphate buffered normal saline. A second group of three animals received 50 uCi ^111 In-DTPA by the same route. All animal were examined for whole body retention of In-111 in a Capintec dose calibrator at 0.5, 1, 2, 3, 4, and 24 hours after injection.

[7] = in vivo; cited from earlier work
[8] = tested on: rhDHFR; experiment: Stability of conjugated enzyme: percent DHFR activity remaining; format: physicochemical, human
Experimental: A 10-fold molar excess of the photoaffinity analog was mixed with the enzyme, and the volume adjusted to a protein concentration of 1 mg/ml using 10 mM Tris-HCl buffer (pH 7.5). The mixture was kept in ice at a 10 cm distance from the light source while photoactivation was carried out for 5 minutes with occasional stirring. An aliquot was assayed for DHFR activity before and after photoactivation. The NADP^+ -linked enzyme was purified by gel-filtration using 10 mM sodium phosphate buffer, pH 7.2, containing 20 mM NaCl. Fractions were assayed for DHFR activity before they were pooled for protein estimation (using Pierce BCA reagent) and determination of incorporation of NADP^+ moieties per enzyme molecule.
[…] Percent stability was calculated by comparing with a sample kept at 4° C.

With `CN(Cc1cnc2nc(N)nc(N)c2n1)c1ccc(C(=O)N[C@@H](CCC(=O)NNC(=O)CN(CCN(CCN(CC(=O)O)CC(=O)O)CC(=O)O)CC(=O)O)C(=O)O)cc1` [DTPA-MTX] the “inhibitory effect on dihydrofolate reduction compared with MTX” value [1] was “virtually identical to MTX inhibition” and the “inhibition of/binding to 16.88 bound rhDHFR compared with equivalent activity of native rhDHFR” value [2] was “confirmed the methotrexate data”.

For `NC(=O)C1=CN([C@@H]2O[C@H](COP(=O)(O)OP(=O)(O)OC[C@H]3O[C@@H](n4cnc5c(N)ncnc54)[C@H](OP(=O)(O)O)[C@@H]3O)[C@@H](O)[C@H]2O)C=CC1` [NADPH, nicotinadenine dinucleotide phosphate], the “protection of rhDHFR from thermal denaturation” value [3] is listed as “capable of protecting”.

In the case of `NC(=O)c1ccc[n+]([C@@H]2O[C@H](COP(=O)([O-])OP(=O)(O)OC[C@H]3O[C@@H](n4cnc5c(N)ncnc54)[C@H](OP(=O)(O)O)[C@@H]3O)[C@@H](O)[C@H]2O)c1` [NADP], the “protection of rhDHFR from thermal denaturation” value [3] is given as “capable of protecting”.

With `O=C([O-])CN(CCN(CC(=O)[O-])CC(=O)[O-])CCN(CC(=O)[O-])CC(=O)[O-].[111In+3].[H+].[H+]` [^111 In-DTPA] the kidney activity levels ([4]; i.v.) was “Low activity levels”, the “urine activity (clearance via urine)” value ([4]; i.v. 140-190 μg, 120 μCi) was “high urine activity levels” and the “injected dose per gram (ml) remaining in the serum” value ([5]; 1 hour post injection, i.v., 9 μg) was “less than 0.2%”. The “kidney activity (clearance via urine)” value ([5]; nude mouse, all time points 1-24 hours) was “activity in the kidney at all time points”, the liver uptake ([5]; nude mouse, i.v.) was “not seen” and the whole body clearance [6] was “clear from the mice at similar rates”. For the same molecule, the “clearance from the circulation” value [7] was “clear rapidly from the circulation” and the “retention in normal tissues” value [7] was “little retention in normal tissues”.

B1: ANPAP-NADP^+ -rhDHFR: DHFR stabilized through covalent conjugation with a photoaffinity analog of NADP^+ (ANPAP-NADP) followed by photoactivation (conjugate, UniProt P00374 1-187, looked up)
Dihydrofolate reductase: MVGSLNCIVAVSQNMGIGKNGDLPWPPLRNEFRYFQRMTTTSSVEGKQNLVIMGKKTWFSIPEKNRPLKGRINLVLSRELKEPPQGAHFLSRSLDDALKLTEQPELANKVDMVWIVGGSSVYKEAMNHPGHLKLFVTRIMQDFESDTFFPEIDLEKYKLLPEYPGVLSDVQEEKGIKYKFEVYEKND
modifications: photo-crosslinked ANPAP-NADP+ analog
With B1 the “Stability: percent enzyme activity remaining after incubation” value ([8]; 0 minutes, 37° C.) was 100%, the “Stability: percent enzyme activity remaining after incubation” value ([8]; 60 minutes, 37° C.) was 82% and the “Stability: percent enzyme activity remaining after incubation” value ([8]; 120 minutes, 37° C.) was 78%. The “Stability: percent enzyme activity remaining after incubation” value ([8]; 180 minutes, 37° C.) was 78%, the “Stability: percent enzyme activity remaining after incubation” value ([8]; 1080 minutes, 23° C.) was 67% and the “Percent remaining activity following photoactivation” value ([8]; photoactivation time 5 minutes) was 100%.

B2: rhDHFR: recombinant human dihydrofolate reductase (protein, UniProt P00374 1-187, looked up)
Dihydrofolate reductase: MVGSLNCIVAVSQNMGIGKNGDLPWPPLRNEFRYFQRMTTTSSVEGKQNLVIMGKKTWFSIPEKNRPLKGRINLVLSRELKEPPQGAHFLSRSLDDALKLTEQPELANKVDMVWIVGGSSVYKEAMNHPGHLKLFVTRIMQDFESDTFFPEIDLEKYKLLPEYPGVLSDVQEEKGIKYKFEVYEKND
With B2 the “Stability: percent enzyme activity remaining after incubation” value ([8]; 0 minutes, 37° C.) was 100%, the “Stability: percent enzyme activity remaining after incubation” value ([8]; 30 minutes, 37° C.) was 18% and the “Stability: percent enzyme activity remaining after incubation” value ([8]; 60 minutes, 37° C.) was 10%.
